The source made the active and inactive calls. The calls are words filed in the database; no cut-off is given here.
Legend:
COLO 205 [1] = experiment: Antitumor activity against human COLO 205 cells xenografted in athymic nude mouse model assessed as gross log cell kill at 20 mg/kg, ip administered once daily in presence of gemcitabine (Gemcitabine alone = 0.5%); type: functional
COLO 205 [2] = experiment: Antitumor activity against human COLO 205 cells xenografted in athymic nude mouse model assessed as gross log cell kill at 30 mg/kg, ip administered twice daily in presence of gemcitabine (Gemcitabine alone = 0.27%); type: functional
COLO 205 [3] = experiment: Antitumor activity against human COLO 205 cells xenografted in athymic nude mouse model assessed as potentiated tumor growth inhibition at 7.5 mg/kg, ip administered once daily in presence of gemcitabine relative to control; type: functional; settings: read-out: TGI
CA46 = experiment: Inhibition of camptothecin induced DNA damage in p-53 mutated human CA46 cells assessed as G2 checkpoint abrogation at 0.001 to 1 uM measured after 16 hrs presence of nocodazole by dot blot assay; type: functional, cell-based; settings: dose 0.001-1 µM
HT-29 [4] = experiment: Potentiation factor, ratio of IC50 for human HT-29 cells to IC50 for human HT-29 cells in presence of mytomicin-C; type: functional
MDA-MB-231 [5] = experiment: Potentiation factor, ratio of IC50 for human MDA-MB-231 cells to IC50 for human MDA-MB-231 cells in presence of mytomicin-C; type: functional
MDA-MB-231 [6] = experiment: Potentiation factor, ratio of IC50 for human MDA-MB-231 cells to IC50 for human MDA-MB-231 cells in presence of doxorubicin; type: functional
COLO 205 [7] = experiment: Antitumor activity against human COLO 205 cells xenografted in athymic nude mouse model assessed as tumor growth delay by measuring test to control tumor ratio at 20 mg/kg, ip administered once daily in presence of gemcitabine (Gemcitabine alone= 8%); type: functional
COLO 205 [8] = experiment: Antitumor activity against human COLO 205 cells xenografted in athymic nude mouse model assessed as tumor growth delay by measuring test to control tumor ratio at 15 mg/kg, ip administered twice daily in presence of gemcitabine (Gemcitabine alone = 3%); type: functional
K562 [9] = experiment: Potentiation factor, ratio of IC50 for human K562 cells to IC50 for human K562 cells in presence of SN-38; type: functional
COLO 205 [10] = experiment: Antitumor activity against human COLO 205 cells xenografted in athymic nude mouse model assessed as gross log cell kill at 40 mg/kg, ip administered twice daily in presence of gemcitabine (Gemcitabine alone = 0.5%); type: functional
[11] = target: Tyrosine-protein kinase Yes (Homo sapiens, UniProt P07947); experiment: Inhibition of Yes (unknown origin)
COLO 205 [12] = experiment: Antitumor activity against human COLO 205 cells xenografted in athymic nude mouse model assessed as gross log cell kill at 12 mg/kg, ip administered once daily in presence of gemcitabine (Gemcitabine alone = 0.5%); type: functional
[13] = Cmax in nu/nu mouse at 40 mg/kg, ip by LCMS analysis; type: ADME, organism-based; settings: in vivo
COLO 205 [14] = experiment: Antitumor activity against human COLO 205 cells xenografted in athymic nude mouse model assessed as potentiated tumor growth inhibition at 20 mg/kg, ip administered once daily in presence of gemcitabine relative to control; type: functional; settings: read-out: TGI
HT-29 [15] = experiment: Potentiation factor, ratio of IC50 for human HT-29 cells to IC50 for human HT-29 cells in presence of doxorubicin; type: functional
HT-29 [16] = experiment: Potentiation factor, ratio of IC50 for human HT-29 cells to IC50 for human HT-29 cells in presence of gemcitabine; type: functional
HT-29 [17] = experiment: Inhibition of gemcitabine induced cell cycle arrest in human HT-29 cells assessed as decrease in CDK1 phosphorylation level at 360 nM by immunoblot analysis; type: functional, cell-based; settings: time 2-24 hrs
COLO 205 [18] = experiment: Antitumor activity against human COLO 205 cells xenografted in athymic nude mouse model assessed as tumor growth delay by measuring test to control tumor ratio at 30 mg/kg, ip administered once daily in presence of gemcitabine (Gemcitabine alone = 3%); type: functional
HT-29 [19] = experiment: Potentiation of gemcitabine induced cytotoxicity in human HT-29 cells assessed as cell survival at 180 nM measured after 4 to 48 hrs by coulter counter method relative to gemcitabine alone; type: functional; settings: time 4-48 hrs, read-out: Activity
HT-29 [20] = experiment: Induction of apoptosis in gemcitabine induced human HT-29 cells assessed as apoptotic cell death measured after 32 hrs by PI staining based flow cytometry analysis (reference value: 1.2%); type: functional
K562 [21] = experiment: Antiproliferative activity against human K562 cells deficit of p53 expression assessed as inhibition of cell growth measured after 96 hrs by MTT assay; type: functional, cell-based; settings: K562, 96 h
PC-3 = experiment: Potentiation factor, ratio of IC50 for human PC-3 cells to IC50 for human PC-3 cells in presence of carboplatin; type: functional
COLO 205 [22] = experiment: Antitumor activity against human COLO 205 cells xenografted in athymic nude mouse model assessed as potentiated tumor growth inhibition at 24 mg/kg, ip administered twice daily in presence of gemcitabine relative to control; type: functional; settings: read-out: TGI
MDA-MB-231 [23] = experiment: Potentiation factor, ratio of IC50 for human MDA-MB-231 cells to IC50 for human MDA-MB-231 cells in presence of carboplatin; type: functional
HT-29 [24] = experiment: Potentiation of gemcitabine induced cytotoxicity in human HT-29 cells assessed as cell survival at 540 nM measured after 4 to 48 hrs by coulter counter method relative to gemcitabine alone; type: functional; settings: time 4-48 hrs, read-out: Activity
[25] = target: Cyclin-dependent kinase 1 (Homo sapiens, UniProt P06493); experiment: Binding affinity to CDK1 (unknown origin) assessed as inhibition constant
COLO 205 [26] = experiment: Antitumor activity against human COLO 205 cells xenografted in athymic nude mouse model assessed as tumor growth inhibition at 24 mg/kg, ip administered twice daily in presence of gemcitabine (Gemcitabine alone= 58%); type: functional; settings: read-out: TGI
HT-29 [27] = experiment: Potentiation of camptothecin induced cytotoxicity in human HT-29 cells assessed as cell survival at 180 nM measured after 4 to 48 hrs by coulter counter method relative to camptothecin alone; type: functional; settings: time 4-48 hrs, read-out: Activity
COLO 205 [28] = experiment: Potentiation factor, ratio of IC50 for human COLO 205 cells to IC50 for human COLO 205 cells in presence of doxorubicin; type: functional
HT-29 [29] = experiment: Inhibition of cell cycle arrest in human HT-29 cells assessed as inhibition of gemcitabine induced S-phase arrest pretreated with gemcitabine followed by compound treatment and measured after 10 to 48 hrs by flow cytometry analysis; type: functional, cell-based; settings: time 10-48 hrs
COLO 205 [30] = experiment: Antitumor activity against human COLO 205 cells xenografted in athymic nude mouse model assessed as gross log cell kill at 7.5 mg/kg, ip administered once daily in presence of gemcitabine (Gemcitabine alone = 0.27%); type: functional
HT-29 [31] = experiment: Induction of apoptosis in gemcitabine induced human HT-29 cells assessed as apoptotic cell death measured after 48 hrs by PI staining based flow cytometry analysis (reference value: 8.6%); type: functional
HT-29 [32] = experiment: Induction of DNA damage in gemcitabine induced human HT-29 cells assessed as increase in intensity of H2AX phosphorylation at 360 nM measured after 24 hrs by immunoblot analysis; type: functional, cell-based
[33] = AUC (0 to infinity) in nu/nu mouse at 20 mg/kg, ip by LCMS analysis; type: ADME, organism-based; settings: in vivo
COLO 205 [34] = experiment: Potentiation factor, ratio of IC50 for human COLO 205 cells to IC50 for human COLO 205 cells in presence of mytomicin-C; type: functional

Chain of Tyrosine-protein kinase Yes (P07947 whole entry): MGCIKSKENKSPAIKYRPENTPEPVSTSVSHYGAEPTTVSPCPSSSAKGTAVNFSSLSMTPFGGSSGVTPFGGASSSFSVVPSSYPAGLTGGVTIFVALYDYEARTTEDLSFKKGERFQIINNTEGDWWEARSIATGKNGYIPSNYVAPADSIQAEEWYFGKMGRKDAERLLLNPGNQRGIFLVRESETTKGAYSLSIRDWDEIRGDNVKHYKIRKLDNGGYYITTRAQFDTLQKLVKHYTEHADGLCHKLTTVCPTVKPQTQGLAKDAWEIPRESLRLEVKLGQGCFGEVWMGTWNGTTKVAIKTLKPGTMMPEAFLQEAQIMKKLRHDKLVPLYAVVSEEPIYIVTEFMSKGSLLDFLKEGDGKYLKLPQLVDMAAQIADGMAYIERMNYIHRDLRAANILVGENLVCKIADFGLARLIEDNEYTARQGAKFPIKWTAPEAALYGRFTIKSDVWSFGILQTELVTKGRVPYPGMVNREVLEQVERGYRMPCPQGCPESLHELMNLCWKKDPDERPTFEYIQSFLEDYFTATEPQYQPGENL
Chain of Cyclin-dependent kinase 1 (P06493 whole entry): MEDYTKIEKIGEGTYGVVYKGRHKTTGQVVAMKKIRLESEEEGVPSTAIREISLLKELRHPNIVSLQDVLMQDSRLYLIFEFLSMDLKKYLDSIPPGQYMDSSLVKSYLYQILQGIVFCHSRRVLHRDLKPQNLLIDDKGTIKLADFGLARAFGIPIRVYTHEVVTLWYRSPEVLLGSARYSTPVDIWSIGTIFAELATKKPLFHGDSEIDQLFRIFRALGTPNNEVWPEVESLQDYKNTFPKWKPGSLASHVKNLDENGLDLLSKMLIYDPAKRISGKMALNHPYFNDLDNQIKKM

Q: Which LCK (COLO 205 [1]) does the source give for `Cn1cc(-c2[nH]c3cc(NC(=O)[C@H](N)C4CCCCC4)cc4c3c2C=NNC4=O)cn1` here?
A: 0.75

Q: What about the LCK (COLO 205 [2]) of the same compound?
A: 0.89

Q: What about the inhibition in vivo at 7.5 mg/kg (COLO 205 [3]) of the same compound?
A: 23%

Q: And the inhibition (CA46)?
A: Active

Q: And the PF50 (HT-29 [4])?
A: 3.7

Q: What about the PF50 (MDA-MB-231 [5]) of the same compound?
A: 1.2

Q: And the PF50 (MDA-MB-231 [6])?
A: 2.25

Q: And the T/C (COLO 205 [7])?
A: 12

Q: And the T/C (COLO 205 [8])?
A: 11.25

Q: What about the PF50 (K562 [9]) of the same compound?
A: 1.9

Q: And the LCK (COLO 205 [10])?
A: 1.25

Q: What about the IC50 [11] of the same compound?
A: 29 nM

Q: What about the LCK (COLO 205 [12]) of the same compound?
A: 0.53

Q: And the Cmax [13]?
A: 6780 ng/mL

Q: And the inhibition in vivo at 20 mg/kg (COLO 205 [14])?
A: 43%

Q: What about the PF50 (HT-29 [15]) of the same compound?
A: 2.2

Q: And the PF50 (HT-29 [16])?
A: 9

Q: And the inhibition (HT-29 [17])?
A: Dose-Dependent Effect

Q: And the T/C (COLO 205 [18])?
A: 7.25

Q: What about the viability at 0.18 µM (HT-29 [19]) of the same compound?
A: 75%

Q: And the Activity (HT-29 [20])?
A: 18.1%

Q: And the IC50 (K562 [21])?
A: 420 nM

Q: And the PF50 (PC-3)?
A: 3.1

Q: What about the inhibition in vivo at 24 mg/kg (COLO 205 [22]) of the same compound?
A: 55%

Q: What about the PF50 (MDA-MB-231 [23]) of the same compound?
A: 2.55

Q: And the viability at 0.54 µM (HT-29 [24])?
A: 69%

Q: And the Ki [25]?
A: 9.9 nM

Q: And the inhibition in vivo at 24 mg/kg (COLO 205 [26])?
A: 81%

Q: What about the viability at 0.18 µM (HT-29 [27]) of the same compound?
A: 90%

Q: What about the PF50 (COLO 205 [28]) of the same compound?
A: 1.1

Q: What about the inhibition (HT-29 [29]) of the same compound?
A: Active

Q: And the LCK (COLO 205 [30])?
A: 0.52

Q: And the Activity (HT-29 [31])?
A: 78.6%

Q: What about the Activity (HT-29 [32]) of the same compound?
A: Active

Q: And the AUC(0-inf) [33]?
A: 2670 ng·h/mL

Q: And the PF50 (COLO 205 [34])?
A: 5.3
